Test results: US20200247808A1, “Heterocyclic Tec-Family Kinase Inhibitors” (GB005, Inc., priority 2015, published 2020)
Entries after “also recorded” stand apart in the source; their conditions may differ.

Legend:
[1] = system: TMD-8 human activated B cell diffuse large B cell lymphoma cells; test: TMD-8 survival assay (Cell Titer-Glo); assay type: cell-based; settings: TMD8, TMD-8 cells, 72 h
Description: TMD-8 human activated B cell diffuse large B cell lymphoma cells were seeded in 96-well plates at a density of 20,000 cells/well in HyClone RPMI supplemented with 10% FBS (Fisher)/1% Penicillin/Streptomycin (HyClone) and incubated at 37° C., 5% CO2. Cells were treated in triplicate with 1,000 nM or 100 nM curves of compounds for 72h. Cell survival was measured by Cell Titer-Glo Luminescent Assay (Promega). EC50 values (50% proliferation in the presence of compound as compared to vehicle treated controls) were calculated from dose response compound curves using GraphPad Prism Software.

[2] = system: immune complex mediated vasculitis; test: Mouse Arthus (immune complex mediated acute vasculitis); assay type: in vivo, mouse (Balb/c); settings: mice; for Suppression of immune complex mediated vasculitis: oral gavage 10 mg/kg, 1 h pre-treatment, Evan's blue extravasation at 4 h
Description: Formation and reaction to immune complexes is characteristic of antibody mediated autoimmune and inflammatory disease. BTK is important in signaling pathways downstream of Fc receptor stimulation which can be modeled by immune complex mediated acute vasculitis. Mouse studies were conducted as reported in Braselmann S, et al. J Pharmacol Exp Ther, 2006, 319:998-1008.
In summary, female Balb/c mice (6-7 weeks on arrival) were habituated to the animal facility for at least 4 days. On the day of the experiment, animals were pre-treated (t=minus 1 h) with compound or vehicle alone by gavage (PO). At t=0, animals were injected intravenously (IV; 0.1 mL/mouse) with saline containing chicken ovalbumin and Evan's blue (10 mg/mL of each). Ten minutes later (t=10 min), animals were anesthesized with isoflurane, the dorsal surface was shaved and rabbit anti-chicken ovalbumin antibody was then injected intradermally at one site on the right side of the animal (25 μg in 30 μL). The same amount of isotype control antibody was then injected on the left side.
The animals were then returned to their home cage and skin punches (8 mm) were collected from each injection site four hours later. The samples were placed in 1 mL formamide overnight at 80° C. (1 skin biopsy per 1 mL formamide in a glass tube). The amount of Evan's blue in the formamide solution was then assessed by spectrophotometry (630 nm) as a measure of serum extravasation into the dermis.

[3] = target: T1, human BTK (Homo sapiens, UniProt Q06187); test: BTK kinase inhibition, KinaseProfiler radiometric protein kinase assay (Eurofins); assay type: biochemical
T1 construct: purchased Eurofins Pharma Discovery Services UK Limited (contract assay, KinaseProfiler)
Description: (§1) In vitro potency of selected compound was defined against human BTK, EGFR, and ErbB2 kinases using Kinase Profiler radiometric protein kinase assays performed at Eurofins Pharma Discovery Services UK Limited.
(§2) Each kinase is diluted in buffer and all compounds were prepared to 50x final assay concentration in 100% DMSO. This working stock of the compound was added to the assay well as the first component in the reaction, followed by the remaining components as detailed in the assay protocol listed above. The reaction was initiated by the addition of the MgATP mix. […] (specific activity approx. 500 cpm/pmol, concentration as required) and variable test article concentrations. […] The reaction was stopped by the addition of 3% phosphoric acid solution. 10 μL of the reaction is then spotted onto a P30 filtermat and washed three times for 5 minutes in 75 mM phosphoric acid and once in methanol prior to drying and scintillation counting. In addition positive control wells contain all components of the reaction, except the compound of interest; however, DMSO (at a final concentration of 2%) were included in these wells to control for solvent effects as well as blank wells contain all components of the reaction, with a reference inhibitor replacing the compound of interest. This abolishes kinase activity and establishes the base-line (0% kinase activity remaining). The potency of each compound was reported by estimating the EC50.

[4] = target: EGFR (Homo sapiens, UniProt P00533); test: EGFR kinase inhibition, KinaseProfiler radiometric protein kinase assay (Eurofins); assay type: biochemical; design: purchased Eurofins Pharma Discovery Services UK Limited (contract assay, KinaseProfiler); settings: 40 min room temperature
Description: as §1
as §2, with “The potency of each compound was reported by estimating the EC50.” left out

[5] = target: T2, human ErbB2 (Homo sapiens, UniProt P04626); test: ErbB2 kinase inhibition, KinaseProfiler radiometric protein kinase assay (Eurofins); assay type: biochemical; settings: 40 min room temperature
T2 construct: purchased Eurofins Pharma Discovery Services UK Limited (contract assay, KinaseProfiler)
Description: as §1
as §2, with “In addition positive control wells contain all components of the reaction, except the compound of interest; however, DMSO (at a final concentration of 2%) were included in these wells to control for solvent effects as well as blank wells contain all components of the reaction, with a reference inhibitor replacing the compound of interest.” left out

[6] = system: TMD-8 xenograft B-cell lymphoma; test: Antitumor activity study, TMD-8 xenograft; assay type: in vivo, mouse (Scid); settings: Scid mice, once daily oral gavage from d21
Description: Female C.B-17/IcrHsd-PrkdcsidLystbg-J mice (Scid mice; Harlan, 6-8 wk on delivery) were used for these studies. The mice were housed 4 per cage in a ventilated rack in a room under controlled conditions of temperature (20-25° C.) and humidity (40-70%), with a 12 h dark/light cycle. The animals were fed ad libitum with irradiated rodent diet (Harlan) and received autoclaved tap water. The cage, bedding and enrichment materials inside the home cage were autoclaved prior to use and all cage and animal manipulations were carried out inside a sterile laminar flow hood. Animals were acclimated for 1 week prior to cell injection.
TMD-8 human activated B cell diffuse large B cell lymphoma cells were grown in HyClone RPMI supplemented with 10% FBS (Fisher)/1% Penicillin/Streptomycin (HyClone) at 37° C., 5% CO2 and then prepared for injection. […]
When the mean tumor volume reached 200-300 mm^3 (d21) mice were randomized into groups of 10 based on tumor size and treatment was initiated. […] General condition and BW of all mice was assessed daily and tumor measurements collected twice per week (Mon and Thur). […]
The long (a) and short (b) axis of tumors were measured with electronic calipers (Mitutoyo) and tumor volume (mm^3) was calculated (a*b^2/2) and temporal changes in tumor volume and body weight were assessed day 21 (d21) to […].

T2 sequence (P04626 23-1255): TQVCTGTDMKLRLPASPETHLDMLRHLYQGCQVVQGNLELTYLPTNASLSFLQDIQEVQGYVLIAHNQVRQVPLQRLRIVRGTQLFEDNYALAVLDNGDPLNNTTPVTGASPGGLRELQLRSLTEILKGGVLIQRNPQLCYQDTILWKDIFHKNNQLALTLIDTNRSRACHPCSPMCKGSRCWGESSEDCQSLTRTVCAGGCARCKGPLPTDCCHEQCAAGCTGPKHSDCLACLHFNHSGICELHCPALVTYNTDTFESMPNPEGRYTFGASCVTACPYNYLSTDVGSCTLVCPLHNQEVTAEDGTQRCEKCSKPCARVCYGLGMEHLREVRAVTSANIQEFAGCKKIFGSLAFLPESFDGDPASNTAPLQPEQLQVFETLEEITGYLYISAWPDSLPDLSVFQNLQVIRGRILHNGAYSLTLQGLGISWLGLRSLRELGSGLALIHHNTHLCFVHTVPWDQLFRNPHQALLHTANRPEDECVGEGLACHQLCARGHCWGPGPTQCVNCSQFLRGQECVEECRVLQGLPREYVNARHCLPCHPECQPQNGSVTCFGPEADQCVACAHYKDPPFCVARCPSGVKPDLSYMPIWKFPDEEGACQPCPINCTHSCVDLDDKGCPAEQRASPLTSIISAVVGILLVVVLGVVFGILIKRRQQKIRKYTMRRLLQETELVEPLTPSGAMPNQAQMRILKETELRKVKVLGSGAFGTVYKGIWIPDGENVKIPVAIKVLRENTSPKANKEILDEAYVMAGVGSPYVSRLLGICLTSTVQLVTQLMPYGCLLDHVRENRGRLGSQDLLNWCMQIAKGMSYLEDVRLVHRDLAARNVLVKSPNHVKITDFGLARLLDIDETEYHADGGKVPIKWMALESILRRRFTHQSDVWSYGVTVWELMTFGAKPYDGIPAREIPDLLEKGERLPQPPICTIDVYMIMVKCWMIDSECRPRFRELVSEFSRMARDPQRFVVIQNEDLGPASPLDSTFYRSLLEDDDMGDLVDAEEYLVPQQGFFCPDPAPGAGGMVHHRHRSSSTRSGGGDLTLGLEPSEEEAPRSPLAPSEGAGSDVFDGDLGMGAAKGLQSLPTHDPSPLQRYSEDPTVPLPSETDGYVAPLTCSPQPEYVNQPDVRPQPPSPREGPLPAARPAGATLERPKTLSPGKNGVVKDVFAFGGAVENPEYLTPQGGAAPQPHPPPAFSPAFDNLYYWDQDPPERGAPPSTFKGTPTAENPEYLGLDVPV
T1 sequence (Q06187 whole entry): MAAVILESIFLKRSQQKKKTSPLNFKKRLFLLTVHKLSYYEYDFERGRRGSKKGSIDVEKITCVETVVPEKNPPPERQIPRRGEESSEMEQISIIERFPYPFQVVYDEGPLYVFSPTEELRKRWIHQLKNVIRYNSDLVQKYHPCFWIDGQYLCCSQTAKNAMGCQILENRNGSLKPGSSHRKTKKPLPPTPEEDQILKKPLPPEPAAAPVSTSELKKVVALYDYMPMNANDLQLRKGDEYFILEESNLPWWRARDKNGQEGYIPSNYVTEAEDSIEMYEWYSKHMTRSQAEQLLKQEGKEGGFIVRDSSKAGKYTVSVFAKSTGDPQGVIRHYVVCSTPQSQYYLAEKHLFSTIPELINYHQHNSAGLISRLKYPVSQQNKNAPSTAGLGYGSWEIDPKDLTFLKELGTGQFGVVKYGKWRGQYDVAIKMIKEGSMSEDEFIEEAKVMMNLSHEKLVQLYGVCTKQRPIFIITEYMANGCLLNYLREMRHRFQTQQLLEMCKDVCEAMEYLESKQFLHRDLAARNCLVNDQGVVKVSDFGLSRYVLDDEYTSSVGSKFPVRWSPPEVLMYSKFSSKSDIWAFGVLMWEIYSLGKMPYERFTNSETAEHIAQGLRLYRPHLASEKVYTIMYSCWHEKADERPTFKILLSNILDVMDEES
EGFR, sequence (P00533 25-1210): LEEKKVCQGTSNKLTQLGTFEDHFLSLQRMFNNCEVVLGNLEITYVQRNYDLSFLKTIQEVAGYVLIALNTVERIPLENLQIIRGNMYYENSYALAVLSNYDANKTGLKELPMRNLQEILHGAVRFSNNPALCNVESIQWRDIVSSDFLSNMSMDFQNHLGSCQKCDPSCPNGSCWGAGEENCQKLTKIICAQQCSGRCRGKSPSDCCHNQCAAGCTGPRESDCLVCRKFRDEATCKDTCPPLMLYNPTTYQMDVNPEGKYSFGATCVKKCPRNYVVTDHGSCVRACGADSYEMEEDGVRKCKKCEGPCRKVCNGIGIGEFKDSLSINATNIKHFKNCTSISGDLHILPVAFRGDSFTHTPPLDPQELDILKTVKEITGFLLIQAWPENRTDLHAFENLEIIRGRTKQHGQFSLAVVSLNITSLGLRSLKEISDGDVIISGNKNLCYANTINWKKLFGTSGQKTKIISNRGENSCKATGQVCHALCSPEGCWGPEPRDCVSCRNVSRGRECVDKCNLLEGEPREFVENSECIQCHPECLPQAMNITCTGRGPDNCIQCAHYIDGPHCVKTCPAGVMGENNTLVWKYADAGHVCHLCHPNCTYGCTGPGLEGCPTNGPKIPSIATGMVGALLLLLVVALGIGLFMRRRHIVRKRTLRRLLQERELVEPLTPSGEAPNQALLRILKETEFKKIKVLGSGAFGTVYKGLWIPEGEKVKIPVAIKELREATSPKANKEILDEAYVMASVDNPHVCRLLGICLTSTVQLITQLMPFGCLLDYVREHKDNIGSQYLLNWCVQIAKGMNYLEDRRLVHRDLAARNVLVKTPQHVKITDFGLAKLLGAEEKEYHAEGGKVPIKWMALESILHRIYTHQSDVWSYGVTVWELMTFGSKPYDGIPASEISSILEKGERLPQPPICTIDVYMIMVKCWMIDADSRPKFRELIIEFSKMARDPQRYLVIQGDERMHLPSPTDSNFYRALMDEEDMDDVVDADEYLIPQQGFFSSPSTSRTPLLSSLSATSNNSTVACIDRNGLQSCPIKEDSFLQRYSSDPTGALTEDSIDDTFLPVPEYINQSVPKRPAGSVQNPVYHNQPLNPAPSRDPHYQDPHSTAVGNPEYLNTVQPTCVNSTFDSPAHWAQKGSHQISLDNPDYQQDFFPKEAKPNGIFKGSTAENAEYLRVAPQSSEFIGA

IC50 [3] [nM]	IC50 [4] [nM]	IC50 [5] [nM]	Compound	EC50 [1] [nM]	Effect on immune complex-mediated vasculitis (FIG. 3, in words) [2]	Suppression of immune complex mediated vasculitis [2] [%]	Effect on TMD-8 xenograft tumor growth [6]
3	> 1000	> 1000	CC#CC(=O)N[C@H]1C[C@@H](n2nc(-c3ccc(Oc4ccccc4)cc3)c3c(N)ncnc32)C1 [Compound 1]	1	inhibit immune complex-mediated vasculitis	87	reduce growth of TMD-8 xenograft B-cell lymphoma; also recorded: reduce tumor growth
3	> 1000	97	C=CC(=O)N[C@H]1C[C@@H](n2nc(-c3ccc(Oc4ccccc4)cc3)c3c(N)ncnc32)C1 [Compound 2]	1.9	inhibit immune complex-mediated vasculitis	94	reduce growth of TMD-8 xenograft B-cell lymphoma; also recorded: reduce tumor growth
